# Patent US20140004209A1, “AUTOPHAGY INDUCER AND INHIBITOR COMBINATION THERAPY FOR THE TREATMENT OF NEOPLASMS” (GENENTECH, INC., priority 2010, published 2014)
# Entries after “also recorded” stand apart in the source; their conditions may differ. Where two headings read alike, the source gives them in different places.
# Assays:
# Type in all cases: cell-based, human
# PC3 cells [1] = assay: PC3 cell viability and cell death (PI exclusion, annexin V, caspase-3/7); conditions: 4 μM II-4, 10 μM CQ, 0.5% FBS, 10 d
# Experimental: Cell viability and cell cycle analysis. Cell number and viability was measured using trypan blue exclusion assay using a Vi-Cell Analyzer (Beckman Coulter), or labeled with 1 μg/ml PI in PBS/1% BSA followed by cytofluorometric analysis with a fluorescence-activated cell sorter (FACS) (Becton Dickinson). FITC-conjugated Annexin V was used for the assessment of phosphatidylserine exposure by FACS analysis. Caspase activation was analyzed using a Caspase-Glo 3/7 Assay kit (Promega). For cell cycle analysis, cells were fixed with drop-wise addition of chilled 70% ethanol, washed with PBS and resuspended in staining solution containing 50 μg/ml PI and 60 units of RNAse A. DNA content was analyzed by flow cytometry using the FlowJo and ModFit software (Becton Dickinson).
# Akt = assay: Immunoblot of Akt and S6 phosphorylation in PC3 cells; conditions: II-4 alone
# Excerpt: (§1) Western blot analysis, immunofluorescence, 1HC and TUNEL assay: For Western blot analysis, total protein lysates were subjected to SDS-PAGE and transferred to nitrocellulose. Antibodies used were: anti-Akt1, anti-Akt2, anti-Akt3, anti-total-Akt, anti-p-Akt (Ser473), anti-p-Akt (Thr308), anti-p-S6 (Ser235/236), anti-PARP and anti-cleaved caspase-3 (Cell Signaling Technology); anti-p-PRAS40 (Invitrogen); anti-p27^Kip1 (Santa Cruz Biotechnology); anti-LC3 (Novus); anti-LAMP2 and anti-Cathepsin D (BD Biosciences); and anti-GAPDH (Advanced Immunochemical Inc.). Primary antibodies were detected using IR Dye 800-conjugated (Rockland) and Alexa-Fluoro 680-conjugated (Molecular Probes) species-selective secondary antibodies. Detection and quantification were performed using an Odyssey infrared scanner (LICOR) using the manufacturer's software. For immunofluorescence staining, cells were fixed in 3% paraformaldehyde and permeabilized with 0.01% digitonin in PBS, followed by a rabbit polyclonal anti-LC3 (Abgent) primary antibody detected with a cy3-conjugated anti-rabbit secondary antibody (Jackson Immunoresearch). For IHC, formalin-fixed, paraffin-embedded specimens were collected. 5-μm-thick paraffin-embedded sections were stained using an anti-Ki-67 (MIB-1, DakoCytomation) antibody with the Dako ARK kit (Dako Corporation). Tissues were counterstained with haematoxylin, dehydrated, and mounted. In all cases, antigen retrieval was performed with the Dako Target Retrieval Kit as per manufacturer's instructions. For TUNEL assay, formalin-fixed, paraffin-embedded sections were stained using an in situ cell death detection kit (POD; Roche Diagnostic) according to the manufacturer's instructions.
# PC3 cells [2] = assay: Immunoblot of LAMP1, cathepsin D and p62 in PC3 cells
# Excerpt: as §1, with “Primary antibodies were detected using IR Dye 800-conjugated (Rockland) and Alexa-Fluoro 680-conjugated (Molecular Probes) species-selective secondary antibodies.” left out
# Because autophagy is a key function of the lysosomal compartment (Terman, A., B. Gustafsson, and U. T. Brunk, (2006), The lysosomal-mitochondrial axis theory of postmitotic aging and cell death. Chem Biol Interact. 163:29-37), we examined the lysosomal marker LAMPI and cathepsin D, the predominant lysosomal aspartic protease, by immunoblotting (FIG. 6, B and C). […] Cathepsin D is synthesized as a 43-kD preprocathepsin D that is cleaved cotranslationally and glycosylated to form a 46-kD procathepsin D, which is targeted to lysosomes yielding an intermediate that is further cleaved into a mature enzyme consisting of a 15-kD light chain and a 28-kD heavy chain.
structure (smiles),measurement,setting,value
"O=c1[nH]c2ccccc2n1C1CCN(Cc2ccc(-c3nc4cc5nc[nH]c5cc4nc3-c3ccccc3)cc2)CC1 [II-4, 1-(1-(4-(7-phenyl-1H-imidazo[4,5-g]quinoxalin-6-yl)benzyl)piperidin-4-yl)-1H-benzo[d]imidazol-2 (3H)-one]","cell viability, II-4 (Akti-1/2) in combination with CQ",PC3 cells [1],CQ accelerated cell death in combination with II-4; also recorded: rapid drop in cell viability with complete cell death observed by day 10
same,"cell viability, II-4 (Akti-1/2) in combination with CQ",PC3 cells [1]; listed as Akti-1/2,significantly accelerated death rate
same,phosphorylation of Akt on Ser473 and Thr308,Akt,effectively inhibited the phosphorylation of Akt on both Ser473 and Thr308 residues
same,phosphorylation of downstream target S6,Akt,significantly reduced the phosphorylation of downstream target S6
same,"cathepsin D forms, II-4 and CQ",PC3 cells [2],"the precursor forms of cathepsin D accumulated to even higher levels than either alone, whereas the mature 28-kD chain decreased gradually"
same,p62 level,PC3 cells [2],reduced the level of p62
same,LAMP1 levels,PC3 cells [2]; agent alone,increase in LAMP1 levels
same,p62 level,PC3 cells [2]; listed as Akti,caused a reduction in p62 levels
